According to paper PMC11358092, “Caspofungin enhances the potency of rifampin against Gram-negative bacteria” (Frontiers in Microbiology, 2024):
Structures can show the parent of a compound that is named as a salt.

Test system: E. coli MG1655
Test: High-throughput screening of FDA-approved drug library for antibiotic adjuvants (growth inhibition, OD600)
Type: cell-based, Escherichia coli
Conditions: library drug alone, LB medium, 96-well, 8 h static culture at 37°C, relative to PMBN (positive) and DMSO (negative) controls, %, table head prints no unit
Method: To screen for antibiotic adjuvants against GNB, […] library drugs or polymyxin B nonapeptide (PMBN, positive control) or dimethyl sulfoxide (DMSO, negative control). After 8 h of static culture at 37°C, the optical density at 600 nm (OD600) was measured using a microplate reader. Percentage inhibition was calculated as (ODN – ODX)/(ODN – ODP) × 100%, where ODX is the OD600 value for a test treated with drug X, and ODP and ODN are the OD600 values for the positive and negative control, respectively.

| Compound | Growth inhibition, Compound [%] |
| --- | --- |
| C[C@@H](O)[C@H]1C(=O)N2C(C(=O)[O-])=C([C@H]3CCCO3)S[C@H]12.[Na+] [Faropenem sodium] | 100 |
| Oc1c(Cl)cc(Cl)c2cccnc12 [Capitrol] | 118 |
| CC(C)(O/N=C(\C(=O)N[C@@H]1C(=O)N2C(C(=O)[O-])=C(C[n+]3ccccc3)CS[C@H]12)c1csc(N)n1)C(=O)O [Ceftazidime] | 53 |
| CC1CCc2c(N3CCC(O)CC3)c(F)cc3c(=O)c(C(=O)O)cn1c23 (centres unmarked) [Nadifloxacin] | 110 |
| CN(C)c1ccc(O)c2c1C[C@H]1C[C@H]3[C@H](N(C)C)C(O)=C(C(N)=O)C(=O)[C@@]3(O)C(O)=C1C2=O [Minocycline hydrochloride] | 91 |
| CC[C@H]1OC(=O)[C@H](C)[C@@H](O[C@H]2C[C@@](C)(OC)[C@@H](O)[C@H](C)O2)[C@H](C)[C@@H](O[C@@H]2O[C@H](C)C[C@H](N(C)C)[C@H]2O)[C@](C)(O)C[C@@H](C)CN(C)[C@H](C)[C@@H](O)[C@]1(C)O [Azithromycin dihydrate] | 111 |
| C=C1c2cccc(O)c2C(=O)C2=C(O)[C@]3(O)C(=O)C(C(N)=O)=C(O)[C@@H](N(C)C)[C@@H]3[C@@H](O)[C@H]12 [Methacycline hydrochloride] | 112 |
| Nc1nc(F)nc2c1ncn2[C@@H]1O[C@H](COP(=O)(O)O)[C@@H](O)[C@@H]1O [Fludarabine Phosphate] | 43 |
| C[C@@H]1CN(c2c(F)c(F)c3c(=O)c(C(=O)O)cn(C4CC4)c3c2F)C[C@H](C)N1 [Orbifloxacin] | 113 |
| CCO/N=C(\C(=O)N[C@@H]1C(=O)N2C(C(=O)[O-])=C(Sc3nc(-c4cc[n+](C)cc4)cs3)CS[C@H]12)c1nsc(NP(=O)(O)O)n1 [Ceftaroline fosamil] | 93 |
| Cn1nnnc1SCC1=C(C(=O)O)N2C(=O)[C@@H](NC(=O)[C@H](OC=O)c3ccccc3)[C@H]2SC1 [Cefamandole nafate] | 88 |
| CC1NCc2cc(-c3ccc4c(=O)c(C(=O)O)cn(C5CC5)c4c3OC(F)F)ccc21.CS(=O)(=O)O.O (centres unmarked) [Garenoxacin mesylate hydrate] | 106 |
| Oc1ccc(Cl)c2cccnc12 [Dermofongin] | 85 |
| Oc1ccc(Cl)cc1Cc1cc(Cl)ccc1O [Dichlorophen] | 95 |
| C=C[C@]1(C)C[C@@H](OC(=O)CS[C@@H]2CC[C@@H](N)C[C@H]2O)C2(C)[C@H](C)CCC3(CCC(=O)[C@H]32)[C@@H](C)[C@@H]1O.CC(=O)O (some centres unmarked) [Lefamulin acetate] | 98 |
| CN1C[C@@H]2C[C@H]1CN2c1cc2c(cc1F)c(=O)c(C(=O)O)cn2C1CC1.CS(=O)(=O)O [Danofloxacin mesylate] | 100 |
| [H]/N=C(/N)N[C@H]1[C@H](O)[C@@H](O)[C@H](O[C@@H]2O[C@@H](C)[C@](O)(C=O)[C@H]2O[C@@H]2O[C@@H](CO)[C@H](O)[C@@H](O)[C@@H]2NC)[C@@H](N/C(N)=N\[H])[C@@H]1O [Streptomycin sulfate] | 109 |
| C[C@@H]1O[C@@H]1P(=O)(O)O.NC(CO)(CO)CO [Fosfomycin Tromethamine] | 104 |
| CN(C)CCn1nnnc1SCC1=C(C(=O)O)N2C(=O)[C@@H](NC(=O)Cc3csc(N)n3)[C@H]2SC1 [Cefotiam hydrochloride] | 105 |
| CO/N=C(\C(=O)N[C@@H]1C(=O)N2C(C(=O)O)=C(CSc3nc(C)c(CC(=O)O)s3)CS[C@H]12)c1csc(N)n1 [Cefodizime Sodium] | 88 |
| COc1ccc(Cc2cnc(N)nc2N)cc1OC [Diaveridine] | 107 |
| CO/N=C(\C(=O)N[C@@H]1C(=O)N2C(C(=O)O)=C(CSc3nnnn3C)CS[C@H]12)c1csc(N)n1.CO/N=C(\C(=O)N[C@@H]1C(=O)N2C(C(=O)O)=C(CSc3nnnn3C)CS[C@H]12)c1csc(N)n1.Cl [Cefmenoxime hydrochloride] | 96 |
| O=C1CN(/N=C/c2ccc([N+](=O)[O-])o2)C(=O)N1 [Nitrofurantoin] | 98 |
| CC1(C)S[C@@H]2[C@H](NC(=O)C(c3ccccc3)S(=O)(=O)O)C(=O)N2[C@H]1C(=O)O.[Na].[Na] (some centres unmarked) [Sulbenicillin Sodium] | 90 |
| CC(=O)Oc1ccccc1C(=O)Nc1ncc([N+](=O)[O-])s1 [Nitazoxanide] | 36 |
| COC(=O)N/N=C/c1c[n+]([O-])c2ccccc2[n+]1[O-] [Carbadox] | 110 |
| C[C@H]1c2cccc(O)c2C(=O)C2=C(O)[C@]3(O)C(=O)C(C(N)=O)=C(O)[C@@H](N(C)C)[C@@H]3[C@@H](O)[C@@H]21 [Doxycycline hydrochloride] | 114 |

| Compound | Growth inhibition, Compound [%] |
| --- | --- |
| C[C@@H](O)[C@H]1C(=O)N2C(C(=O)O)=C(S[C@@H]3CN[C@H](CNS(N)(=O)=O)C3)[C@H](C)[C@H]12.O [Doripenem Hydrate] | 77 |
| CO/N=C(\C(=O)N[C@@H]1C(=O)N2C(C(=O)O)=C(C[n+]3cccc4c3CCC4)CS[C@H]12)c1csc(N)n1.O=S(=O)([O-])O [Cefpirome sulfate] | 93 |
| CO[C@@]1(NC(=O)CSCC#N)C(=O)N2C(C(=O)O)=C(CSc3nnnn3C)CS[C@@H]21 [Cefmetazole sodium] | 96 |
| [H]/N=C(\N/C(=N/[H])NCCCCCCNC(=N)NC(=N)Nc1ccc(Cl)cc1)Nc1ccc(Cl)cc1 [Chlorhexidine] | 101 |
| O=c1[nH]c(=O)n([C@H]2C[C@H](O)[C@@H](CO)O2)cc1F [Floxuridine] | 87 |
| Cl.O=C1OC(CN2CCOCC2)CN1/N=C/c1ccc([N+](=O)[O-])o1 (centres unmarked) [Furaltadone hydrochloride] | 115 |
| Nc1nc(/C(=C/CC(=O)O)C(=O)N[C@@H]2C(=O)N3C(C(=O)O)=CCS[C@H]23)cs1.O.O [Ceftibuten dihydrate] | 84 |
| CC1(C)S[C@@H]2[C@H](NC(=O)Cc3ccccc3)C(=O)N2[C@H]1C(=O)O [Penicillin G sodium salt] | 38 |
| CCO.C[C@H]1c2cccc(O)c2C(O)=C2C(=O)[C@]3(O)C(O)=C(C(N)=O)C(=O)[C@@H](N(C)C)[C@@H]3[C@@H](O)[C@@H]21.C[C@H]1c2cccc(O)c2C(O)=C2C(=O)[C@]3(O)C(O)=C(C(N)=O)C(=O)[C@@H](N(C)C)[C@@H]3[C@@H](O)[C@@H]21.Cl.Cl.O [Doxycycline hyclate] | 112 |
| CCn1cc(C(=O)O)c(=O)c2cc(F)c(N3CCNCC3)cc21 [Norfloxacin] | 99 |
| CO/N=C(/C(=O)N[C@@H]1C(=O)N2C(C(=O)O)=C(CSC(=O)c3ccco3)CS[C@H]12)c1csc(N)n1.Cl [Ceftiofur hydrochloride] | 84 |
| C[C@@H]1CN(c2c(F)c(N)c3c(=O)c(C(=O)O)cn(C4CC4)c3c2F)C[C@H](C)N1 [Sparfloxacin] | 96 |
| CSCC1CN(/N=C/c2ccc([N+](=O)[O-])o2)C(=O)O1 (centres unmarked) [Nifuratel] | 108 |
| NCC[C@H](O)C(=O)N[C@@H]1C[C@H](N)[C@@H](O[C@H]2O[C@H](CN)[C@@H](O)[C@H](O)[C@H]2O)[C@H](O)[C@H]1O[C@H]1O[C@H](CO)[C@@H](O)[C@H](N)[C@H]1O [Amikacin] | 105 |
| C=C[C@]1(C)C[C@@H](OC(=O)CS[C@@H]2C[C@H]3CC[C@@H](C2)N3C)[C@]2(C)[C@H](C)CC[C@]3(CCC(=O)[C@H]32)[C@@H](C)[C@@H]1O [Retapamulin] | 97 |
| Cc1cn([C@H]2C=C[C@@H](CO)O2)c(=O)[nH]c1=O [Stavudine] | 27 |
| C/C(=C\C(=O)OCCCCCCCCC(=O)[O-])C[C@@H]1OC[C@H](C[C@@H]2O[C@H]2[C@@H](C)[C@H](C)O)[C@@H](O)[C@H]1O.C/C(=C\C(=O)OCCCCCCCCC(=O)[O-])C[C@@H]1OC[C@H](C[C@@H]2O[C@H]2[C@@H](C)[C@H](C)O)[C@@H](O)[C@H]1O.O.O.[Ca+2] [Mupirocin calcium] | 96 |
| NC[C@H]1O[C@H](O[C@H]2[C@H](O)[C@@H](O[C@H]3O[C@H](CO)[C@@H](O)[C@H](N)[C@H]3O)[C@H](N)C[C@@H]2N)[C@H](N)C[C@@H]1O [Tobramycin] | 107 |
| CC(C)(C)C(=O)OCOC(=O)[C@@H]1N2C(=O)[C@@H](/N=C/N3CCCCCC3)[C@H]2SC1(C)C [Pivmecillinam hydrochloride] | 72 |
| C[C@@H](O)[C@H]1C(=O)N2C(C(=O)O)=C(S[C@@H]3CN[C@H](CNS(N)(=O)=O)C3)[C@H](C)[C@H]12 [Doripenem] | 95 |
| CCn1nc(C(=O)O)c(=O)c2cc3c(cc21)OCO3 [Cinoxacin] | 88 |
| CC1CCc2cc(F)cc3c(=O)c(C(=O)O)cn1c23 (centres unmarked) [Flumequine] | 108 |
| CO/N=C1\C[C@]2(C[C@@H]3C[C@@H](C/C=C(\C)C[C@@H](C)/C=C/C=C4\CO[C@@H]5[C@H](O)C(C)=C[C@@H](C(=O)O3)[C@]45O)O2)O[C@H](/C(C)=C/C(C)C)[C@H]1C [Moxidectin] | 32 |
| NC[C@@H]1O[C@H](O[C@H]2[C@@H](O)[C@H](O[C@@H]3[C@@H](O)[C@H](N)C[C@H](N)[C@H]3O[C@H]3O[C@H](CO)[C@@H](O)[C@H](O)[C@H]3N)O[C@@H]2CO)[C@H](N)[C@@H](O)[C@@H]1O [Paromomycin Sulfate] | 108 |
| C[C@H]1COc2c(N3CCN(C)CC3)c(F)cc3c(=O)c(C(=O)O)cn1c23 [Levofloxacin Hemihydrate] | 114 |
| CCn1cc(C(=O)O)c(=O)c2cc3c(cc21)OCO3 [Oxolinic acid] | 108 |
